Results on two compounds are retold here after US20060246099A1 (L'OREAL, priority 2005, published 2006).

Test [1] concerns human striated muscle cells innervated with explants of rat embryonic rachidian ganglia and spinal cord. Kind of test: Nerve-muscle coculture test (muscle fibre contractions). The following applies: 60 seconds incubation. The test is classed as cell-based. As to the method: The compounds of Examples 1 and 2 were tested on a model of nerve-muscle coculture, which makes it possible to recreate a motor arc by innervating human striated muscle cells with explants of rat embryonic rachidian ganglia and spinal cord.
Human muscle cells, obtained from samples of striated muscle from healthy donors, are inoculated into wells of cross section 1.8 cm^2 (24-well culture dishes). After culturing for ten days, these cells form a monolayer and fuse. At this stage, explants of embryonic spinal cord from a 13-day-old rat, containing the rachidian ganglia, are placed on the culture.
The growth of the neurites is visible beyond the spinal cord explant after one day of culture. The first contractions of the muscle fibres are observed after five to six days of coculture, and after three weeks all the muscle fibres in the region of the explants contract.
The cocultures are used after 21 days, when the muscle fibres are striated and contain mature differentiated neuromuscular junctions.
A muscle fibre showing regular contractions (at least 60 contractions per minute) is then selected from three different culture wells and the number of contractions is counted over 30 seconds. […] At the end of incubation, the number of contractions is again counted over 30 seconds. […]

The test system of test [2] is type L calcium channels, verapamil site. Kind of test: Binding to type L calcium channels, [3H](-)-D888 displacement. Particulars: similar test, concentration of 50 μM. More on the design: species or system rat. As to the method: The studies are performed using rat cerebral cortex homogenates (isolated membranes containing at their surface type L calcium channels) according to the method described by Reynolds I. J. et al., 1986, J. Pharmacol. Exp. Ther., 237, p. 731.
The experimental conditions are as follows:
D888, which is [^3H] (−)-demethoxyverapamil, serves as a radiolabelled specific ligand, and D600, which is (±)-methoxyverapamil hydrochloride, serves as a reference molecule.
The specific binding of a ligand (labelled D888) to the receptors (type L calcium channels, verapamil site) is defined as being the difference between the total binding and the non-specific binding determined in the presence of an excess of cold (non-radioactive) ligand. The results are expressed as a percentage of inhibition of the specific binding of the control in the presence of the test compound.

For test [3], the system named is human striated muscle cells innervated with explants of rat embryonic rachidian ganglia and spinal cord. The following applies: validation of the model; cited from earlier work.
For test [4] the following is noted: in vivo; cited from earlier work.

For “1-(2-phenylethyl)-4-(3-phenylpropyl)-piperazine [Compound 2]”, the “% inhibition of contractions” value is 50% in test [1] (10 μM) and 100% in test [1] (100 μM). In addition, the “inhibition of the specific binding of the control to the calcium channels” value in test [2] is on record as 50%.
Regarding `CN1C(=O)CN=C(c2ccccc2)c2cc(Cl)ccc21` [diazepam], in test [3], the “inhibition of muscle fibre contractions” value was “inhibited muscle fibre contractions”. Moreover, the anti-wrinkle activity result in test [4] is on record as “anti-wrinkle activity has been demonstrated in vivo”.
